Columns and labels:
[1] = tested on: statin-treated patients with established atherosclerosis or diabetes plus risk factor; test: Example 2: recurrent and total ischemic events analysis (Andersen-Gill, Wei-Lin-Weissfeld); format: in vivo, human; conditions: for Total key secondary endpoint events: HR vs placebo: without adjustment for stratification differences
Source text: The following study was a multi-center, placebo-controlled clinical trial the details of which are described above in Example 1, the REDUCE-IT design. […] Randomization was stratified by cardiovascular risk cohort (i.e., secondary or primary prevention), use of ezetimibe, and by geographic region.
The primary outcome for the study was total recurrent events consisting of the composite of cardiovascular death, nonfatal myocardial infarction, nonfatal stroke, coronary revascularization, or hospitalization for unstable angina. Recurrent event analyses were also performed for the key secondary endpoint, a composite of cardiovascular death, non-fatal myocardial infarction, or non-fatal stroke. For each of these composite endpoints, the effects of icosapent ethyl in the secondary and primary prevention strata were examined separately.
Demographic and baseline disease characteristics are presented using frequencies and percentages for categorical variables and medians with interquartile ranges for continuous variables. Between treatment group comparisons were derived using the chi-square test for categorical variables and Wilcoxon rank test for continuous variables. All clinical endpoint events used in the efficacy analyses were adjudicated by an independent Clinical Endpoint Committee (CEC) who were blinded to the treatment assignment. Since the primary efficacy endpoint was the time from randomization to the first occurrence of any component of the composite endpoint, and recurrence of such events within each patient is possible, a pre-specified analysis using a Cox proportional-hazard with the counting-process formulation of Andersen and Gill was performed to model the first and all recurrent cardiovascular events. Hazard ratios (HR) and corresponding 95% confidence intervals (CI) are reported from this model. In addition, as a marginal model and an extension of survival models based on the Cox proportional hazard model, the modified Wei-Lin-Weissfeld (WLW) method for analysis of recurrent events in the presence of deaths was carried out as a supportive analysis. In addition, as pre-specified, a recurrent event analysis using the Andersen-Gill and Wei-Lin-Weissfeld methods were carried out for the individual primary event components other than CV death. Though not pre-specified, additional recurrent event analyses were performed for the key secondary endpoint, which is a composite of CV death, non-fatal MI, or non-fatal stroke, and for the primary endpoint and the key secondary endpoint in the primary and secondary prevention strata to explore further the consistency of clinical benefit of icosapent ethyl. In subgroup analyses of the two cardiovascular risk strata (i.e., primary and secondary prevention), site-level discrepancies in cardiovascular risk group assignment occurring at entry and detected during the study (1.8%) were adjusted to conform with documented medical history data prior to randomization. All efficacy analyses were performed according to the intention-to-treat principle. All tests were based on a 2-sided nominal significance level of 5% with no adjustments for multiple comparisons.

[2] = REDUCE-IT safety: treatment-emergent adverse events, safety population
Procedure: All adverse events, including observed or volunteered problems, complaints, or symptoms, were recorded on the appropriate CRF. Each adverse event was evaluated for duration, intensity, and causal relationship with the study medication or other factors.
Adverse Events of Special Interest: Bleeding-related adverse events, glucose control (fasting blood glucose and HbA1c), and indicators of hepatic disorders (e.g., ALT or AST increases >3×ULN, total bilirubin increases of ≥2×ULN) were summarized separately and compared between treatment groups.
Analysis of Safety: All analyses of safety were conducted on the safety population, which was defined as all randomized patients. The safety assessment was based on the frequency of adverse events, physical exams, vital signs and safety laboratory tests. AEs with new onset during the study between the initiation of study drug and 30 days after the last dose of study drug for each patient was considered treatment-emergent (TEAEs). This included any AE with onset prior to initiation of study drug and increased severity after the treatment initiation.
This included overall incidence rates (regardless of severity and relationship to study drug), and incidence rates for moderate or severe adverse events. A summary of SAEs and adverse events leading to early discontinuation (for ≥30 days) were presented through data listings. Patients who restarted study drug were included in the summary of AEs leading to discontinuation. Safety laboratory tests and vital signs were summarized by post-treatment change from baseline for each of the parameters using descriptive statistics by treatment group. Those patients with significant laboratory abnormalities were identified in data listings. Additional safety parameters were summarized in data listings.

[3] = safety population N = 4089, listed as AMR101
[4] = serious bleeding TEAE, safety population N = 4089

CC/C=C\C/C=C\C/C=C\C/C=C\C/C=C\CCCC(=O)OCC [icosapent ethyl, eicosapentaenoic acid ethyl ester]
Total key secondary endpoint: HR vs placebo ([1]; primary prevention stratum): 0.71
Total primary endpoint events: HR vs placebo ([1]; primary prevention stratum, adjusted stratification): 0.79
Total primary endpoint events: HR vs placebo ([1]; primary prevention stratum, without adjusting for stratification differences): 0.86
Total key secondary endpoint events: HR vs placebo ([1]; primary prevention): 0.78
Total key secondary endpoint: HR vs placebo ([1]; secondary prevention stratum): 0.70
Total primary endpoint events: HR vs placebo ([1]; secondary prevention stratum, adjusted stratification): 0.66
Total primary endpoint events: HR vs placebo ([1]; secondary prevention stratum, without adjusting for stratification differences): 0.65
Total key secondary endpoint events: HR vs placebo ([1]; secondary prevention stratum): 0.69
Adverse event rate: anemia ([2]; 4 g/day): 4.7%
Adverse event rate: atrial fibrillation ([2]; 4 g/day): 5.3%
Adverse event rate: diarrhea ([2]; 4 g/day): 9%
Adverse event rate: gastrointestinal adverse events ([2]; 4 g/day): 33.0%
Adverse event rate: peripheral edema ([2]; 4 g/day): 6.5%
Atrial fibrillation or flutter requiring hospitalization (prespecified adjudicated tertiary endpoint) ([2]; 4 g/day): 3.1%
Tolerability; rates of serious adverse events versus placebo ([2]; in vivo): well tolerated
Serious TEAE ([2]; safety population N = 4089): (30.6%)
Serious TEAE (≥2%): Pneumonia ([2]; safety population N = 4089): 2.6%
Serious TEAE Leading to Death ([2]; safety population N = 4089): (2.3%)
Serious TEAE Leading to Withdrawal of Study Drug ([2]; safety population N = 4089): (2.2%)
Serious bleeding TEAE: Bleeding related disorders ([2]; safety population N = 4089): (2.7%)
Serious bleeding TEAE: Central nervous system bleeding ([2]; safety population N = 4089): (0.3%)
Serious bleeding TEAE: Gastrointestinal bleeding ([2]; safety population N = 4089): (1.5%)
Serious bleeding TEAE: Other bleeding ([2]; safety population N = 4089): (1.0%)
Subjects with at Least One TEAE ([2]; safety population N = 4089): (81.8%)
TEAE Leading to Withdrawal of Study Drug ([2]; safety population N = 4089): (7.9%)
Serious bleeding TEAE: Bleeding related disorders [2, 3]: 2.7%
Serious bleeding TEAE: Central nervous system bleeding [2, 3]: 0.3%
Serious bleeding TEAE: Gastrointestinal bleeding [2, 3]: 1.5%
Patients with Bleeding-Related Disorders, % [2, 4]: (2.7%)
Patients with Bleeding-Related Disorders, number [2, 4]: 111

Reference: patent US11986452B2, “Methods of reducing the risk of heart failure” (Amarin Pharmaceuticals Ireland Limited, priority 2021, dated 2024)
